Reference: publication PMC3857039, “First Quantitative Imaging of Organic Fluorine within Angiogenic Tissues by Particle Induced Gamma-Ray Emission (PIGE) Analysis: First PIGE Organic Fluorine Imaging” (Pharmaceutics, 2011)
Values belong to the molecule of their own block, whether it stands above or below them. Where a SMILES comes first, the peptide text is derived from it. [ ]: non-standard residue; d: D form. The star is where a group is joined. X1 = FC(F)(F)C(F)(F)C(F)(F)C(F)(F)C(F)(F)C(F)(F)CCCOCCOCCOCCN*

How the values were obtained:
[1] = tested on: U87 human glioma cells tumor xenografted on the CAM; assay: PIGE/RBS quantification of fluorine in sections of U87 glioma tumor implanted on the CAM after intravascular injection of fluorinated tracer; format: in vivo, chicken; conditions: for Average fluorine concentration, pathological tissue, tumor section (surrounding tissue) / Average fluorine concentration, pathological tissue, capillaries of tumor section / Average fluorine concentration, pathological tissue, Tumor: sacrifice 6 h after injection, PIGE, per g dry mass; for Average fluorine concentration, pathological tissue, Tumor: FDG 1.53 M
Description: (§1) In preparation for the intravascular injection, 274 mg of FDG is dissolved in 1 mL sterile PBS. For the polyfluorinated glucose solution, 10 mg of the probe was added to 1 mL of polypropylene glycol (MW = 400 g/mol). F13-CBO-P11 solutions were prepared in sterile PBS. For the latter, solutions were obtained by the addition of 20 mg and 35 mg of peptide in 1 mL sterile PBS.
U87 human glioma cells (ATCC) were selected for the study as an established model for malignant gliomas that form highly vascularized tumors. Cells were maintained in culture using Dulbecco's modified Eagle's medium (DMEM) with 10% FBS, L-glutamine (2 mmol L^−1), and antibiotics (penicillin 50 UI mL^−1, streptomycin 50 μg mL^−1). Cell culture was performed in a 37 °C incubator with humidified atmosphere and 5% CO2. Cells were grown to confluence, harvested after trypsinization, and re-suspended in serum-free DMEM for implantation.
(§2) Fertilized chicken eggs were incubated at 37 °C in a humidified atmosphere. On day 4 of incubation, a window was made in the shell in order to visualize the chorio allantoïc membrane (CAM). On embryonic day 10, in the tumor group, a ring was put on the CAM and U87 glioma cells (5 million cells per egg suspended in 20 μL of medium) were deposited on the CAM within the ring after gentle laceration of the surface. In the other group, a nylon grid was put on the CAM to allow normal tissue to grow on the grid. After 7 days of implantation (embryonic day 17), FDG, polyfluorinated glucose and F13-CBO-P11 solutions were then injected in a blood vessel of the CAM of each egg (100 μL per embryo). Embryos were sacrificed 6 hours after injection. All samples were removed and snap-frozen in liquid nitrogen-chilled isopentane at −160 °C. CAM samples and normal tissue (S1, Scheme 1) coming from nylon grid were then put on targets (2 mm-thick and 20 mm-diameter aluminium target with a 5 mm-hole in the centre) and freeze-dried during 3 days at−30 °C in a cryostat (CM3050S, Leica Microsystems). Tumors were conserved at −80 °C until sectioning. For tumor tissue, successive serial sections (at 100, 200 and 300 μm) were obtained from the CAM to the tumor (S2 to S4, Scheme 1) using the cryostat, put on targets and freeze-dried. After sample preparation, microphotographs were taken to monitor the experiment.
(§3) Particle Induced γ-ray Emission (PIGE) and Rutherford Backscattering Spectrometry (RBS) were performed simultaneously to determine trace elements quantitative distribution, such as F and Fe, and major element as C, N, and O determination, respectively (Figure1). Analyses were performed with proton beam energy at 3.4 MeV in order to benefit from a high cross section for the nuclear reaction for fluorine. Analyses were realized on zones of typically 850 × 850 μm in a scanning mode of the proton beam. The beam was focused onto the sample surface to a spot of 5 μm in diameter, resulting in a proton beam current of 500 pA as measured with a Faraday cup below the sample. Characteristics gamma rays emitted from elements of the target were detected with an ultralow energy planar germanium detector (surface of the Ge crystal is 100 mm², thickness 10 mm) placed at 45° from incident beam. The γ-ray detector was covered by a 100 μm thick carbon filter (hole 0.2% of the total filter surface), to protect the γ-ray detector from backscattered particles. The RBS measurements were performed using a PIPS detector (passivated implanted planar silicon) placed at 135° from the incident beam direction.
(§4) CaF2 micromatter standard (certified material from NIST) and a PVDF film (polyvinylidene difluoride, 25 μm thick) were used as external standard in order to verify the quantification process. γ-ray emission data were analyzed with the Supavisio software to create mask of interesting areas of selected chemical elements. RBS data were analyzed with SIMNRA code.
The quantification of fluorine was performed by comparative analysis with reference standard. […]

[2] = tested on: chicken chorioallantoic membrane (CAM); assay: PIGE/RBS quantification of fluorine in normal CAM tissue and capillaries after intravascular injection of fluorinated tracer; format: in vivo; conditions: for Average fluorine concentration, physiological tissue, CAM (surrounding tissue) / Average fluorine concentration, physiological tissue, Capillaries: 100 μL per embryo, sacrifice 6 h after injection, PIGE
Description: as §1, §2, §3, §4
The quantification of fluorine was performed by comparative analysis with reference standard. PVDF films were analyzed in order to simulate the composition and thickness of biological samples. PyMCA software was used to fit the 110 keV γ peak on PIGE spectra on a PVDF film and biological samples. The intensity of the peak in the PVDF was used to normalize yield in samples [14, 16].
The combination of PIGE and RBS quantitative data were used for mass normalization of y-ray emission, leading to element concentrations expressed in terms of μg of element per g of dry mass sample. […]

[3] = tested on: U87 human glioma cells tumor xenografted on the CAM; assay: PIGE/RBS quantification of fluorine in sections of U87 glioma tumor implanted on the CAM after intravascular injection of fluorinated tracer; format: in vivo, chicken; conditions: Sample 2, section S1 (tumor section); FDG 0.77 M in PBS, 100 μL per embryo, sacrifice 6 h after injection; PIGE; per g dry mass
[4] = Sample 6, serial tumor section S2, 20 mM in PBS, 100 μL per embryo
[5] = Sample 7, serial tumor section S2, 35 mM in PBS, 100 μL per embryo
[6] = Sample 8, section S1 (CAM sample, no tumor), 35 mM in PBS, per g dry mass
[7] = Sample 3, section S1 (CAM sample, no tumor), FDG 1.53 M in PBS, per g dry mass

Average fluorine concentration, pathological tissue, tumor section (surrounding tissue) ([1]; Sample 6, serial tumor section S1, 20 mM in PBS, 100 μL per embryo (0.49 mg fluorine)): 450±35 μg/g
Average fluorine concentration, pathological tissue, capillaries of tumor section ([1]; Sample 6, serial tumor section S1, 20 mM in PBS, 100 μL per embryo): 610±70 μg/g
Average fluorine concentration, pathological tissue, capillaries of tumor section [1, 4]: 360±50 μg/g
Average fluorine concentration, pathological tissue, tumor section (surrounding tissue) [1, 4]: 270±20 μg/g
Average fluorine concentration, pathological tissue, tumor section (surrounding tissue) ([1]; Sample 7, serial tumor section S1, 35 mM in PBS, 100 μL per embryo (0.85 mg fluorine)): 345±30 μg/g
Average fluorine concentration, pathological tissue, capillaries of tumor section ([1]; Sample 7, serial tumor section S1, 35 mM in PBS, 100 μL per embryo): 650±70 μg/g
Average fluorine concentration, pathological tissue, capillaries of tumor section [1, 5]: 460±45 μg/g
Average fluorine concentration, pathological tissue, tumor section (surrounding tissue) [1, 5]: 215±35 μg/g
Dose dependence of fluorine uptake ([1]; sample 6 (20 mM) versus sample 7 (35 mM)): not dose dependant
Fold higher fluorine concentration in capillaries than in surrounding tissue, tumor sections ([1]; samples 6 and 7, 20 and 35 mM): 1.5 times
Average fluorine concentration, physiological tissue, CAM (surrounding tissue) [2, 6]: 2050±175 μg/g
Average fluorine concentration, physiological tissue, Capillaries [2, 6]: 6570±555 μg/g
Fold higher fluorine concentration in capillaries than in surrounding tissue, normal tissue ([2]; sample 8, 35 mM): 3 times
SMILES: CC[C@H](C)[C@@H]1NC(=O)[C@H](Cc2c[nH]cn2)NC(=O)[C@H](CCC(N)=O)NC(=O)CNC(=O)[C@H](CCC(N)=O)NC(=O)[C@H](Cc2c[nH]cn2)NC(=O)[C@@H]2CCCN2C(=O)[C@H](CCCCN)NC(=O)[C@H]([C@@H](C)CC)NC(=O)[C@H](CCCNC(=N)N)NC(=O)[C@H](CCSC)NC(=O)[C@H]([C@@H](C)CC)NC(=O)[C@H](CCC(N)=O)NC(=O)[C@@H]2CCCN2C(=O)[C@@H](Cc2ccccc2)NC(=O)[C@H](CCC(=O)NCCOCCOCCOCCCC(F)(F)C(F)(F)C(F)(F)C(F)(F)C(F)(F)C(F)(F)F)NC(=O)CNC1=O [Compound F13-CBO-P11] (cyclo(E(X1)[dF]PQIMRIKPHQGQHIG))

Average fluorine concentration, pathological tissue, Tumor [3]: 1570±180 μg/g
Average fluorine concentration, pathological tissue, Tumor ([1]; Sample 3, serial tumor section S2, 100 μL per embryo): 1640±170 μg/g
Average fluorine concentration, pathological tissue, Tumor ([1]; Sample 3, serial tumor section S3, 100 μL per embryo): 1950±240 μg/g
Average fluorine concentration, pathological tissue, Tumor ([1]; Sample 3, serial tumor section S4, 100 μL per embryo): 1470±140 μg/g
Ratio of fluorine concentrations between capillaries and tissues ([2]; FDG 0.77 and 1.53 M): close to one
Average fluorine concentration within capillaries as well as in surrounding tissues (homogeneous distribution) ([2]; FDG 0.77 and 1.53 M, overall average of Table 1): about 1600 μg/g
Average fluorine concentration, physiological tissue, CAM ([2]; Sample 1, section S1 (CAM sample, no tumor), FDG 1.53 M in PBS, 100 μL per embryo into CAM blood vessel, embryonic day 17, sacrifice 6 h after injection, freeze-dried, PIGE 3.4 MeV, per g dry mass): 1560±180 μg/g
Average fluorine concentration, physiological tissue, Capillaries ([2]; Sample 1, section S1 (CAM sample, no tumor), FDG 1.53 M in PBS, per g dry mass): 960±100 μg/g
Average fluorine concentration, physiological tissue, CAM (surrounding tissue) [2, 7]: 1820±210 μg/g
Average fluorine concentration, physiological tissue, Capillaries [2, 7]: 1460±170 μg/g
SMILES: O=C[C@H]([18F])[C@@H](O)[C@H](O)[C@H](O)CO [FDG, 2-deoxy-2-[18F]fluoro-D-glucose]
